Test results reported in US20020165168A1, “USE OF SUGAR DERIVATIVES AS ANTIMICROBIAL, ANTIMYCOTIC AND/OR ANTIVIRAL ACTIVE SUBSTANCES” (priority 1995, published 2002).

system: Corynebacterium xerosis; test: action against Corynebacterium xerosis; details: qualitative statement, no method or data given

| SMILES | action against Corynebacterium xerosis |
| --- | --- |
| CCCCCCCCOC1O[C@H](CO)[C@@H](O)[C@H](O)[C@H]1O (stereo partly drawn) [octylglucopyranoside] | very good action |
| CCCCCCCCCCCCO[C@@H]1O[C@H](CO)[C@@H](O)[C@H](O)[C@H]1O [β-D-dodecylglucopyranoside] | very good action |
| CCCCCCCCCO[C@@H]1O[C@H](CO)[C@@H](O)[C@H](O)[C@H]1O [β-D-nonylglucopyranoside] | very good action |
